Source: patent publication US20240317735A1, “HYDROISOQUINOLINE OR HYDRONAPHTHYRIDINE COMPOUNDS FOR THE TREATMENT OF AUTOIMMUNE DISEASE” (Hoffmann-La Roche Inc., priority 2020, published 2024)
pIC50: −log10 of the molar value.

How the values were obtained:
[1] = Human microsome stability assay; assay type: in vitro ADME; conditions: 1 μM test compound, 0.5 mg/mL liver microsomal protein, 37° C., pH 7.4
Procedure, shortened: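 1 μM compound with 0.5 mg/mL human liver microsomes in 100 mM potassium phosphate pH 7.4, 37° C, started with NADPH-regenerating system after 10 min preincubation. Sampled at 0, 3, 6, 9, 15, 30 min, quenched in acetonitrile; parent remaining by LC-MS/MS, with no-NADPH controls.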

human TLR7 = biological target: T1, human TLR7 (Homo sapiens, UniProt Q9NYK1); assay: HEK293-Blue-hTLR-7 cells assay (SEAP reporter, R848 stimulation); assay type: cell-based; conditions: HEK293-Blue-hTLR7 cells, R848, 20 hrs; read-out: HEK/hTLR7 IC50
T1 construct: host or cells: HEK293 (HEK-Blue hTLR7)
T1 sequence (Q9NYK1 27-1049): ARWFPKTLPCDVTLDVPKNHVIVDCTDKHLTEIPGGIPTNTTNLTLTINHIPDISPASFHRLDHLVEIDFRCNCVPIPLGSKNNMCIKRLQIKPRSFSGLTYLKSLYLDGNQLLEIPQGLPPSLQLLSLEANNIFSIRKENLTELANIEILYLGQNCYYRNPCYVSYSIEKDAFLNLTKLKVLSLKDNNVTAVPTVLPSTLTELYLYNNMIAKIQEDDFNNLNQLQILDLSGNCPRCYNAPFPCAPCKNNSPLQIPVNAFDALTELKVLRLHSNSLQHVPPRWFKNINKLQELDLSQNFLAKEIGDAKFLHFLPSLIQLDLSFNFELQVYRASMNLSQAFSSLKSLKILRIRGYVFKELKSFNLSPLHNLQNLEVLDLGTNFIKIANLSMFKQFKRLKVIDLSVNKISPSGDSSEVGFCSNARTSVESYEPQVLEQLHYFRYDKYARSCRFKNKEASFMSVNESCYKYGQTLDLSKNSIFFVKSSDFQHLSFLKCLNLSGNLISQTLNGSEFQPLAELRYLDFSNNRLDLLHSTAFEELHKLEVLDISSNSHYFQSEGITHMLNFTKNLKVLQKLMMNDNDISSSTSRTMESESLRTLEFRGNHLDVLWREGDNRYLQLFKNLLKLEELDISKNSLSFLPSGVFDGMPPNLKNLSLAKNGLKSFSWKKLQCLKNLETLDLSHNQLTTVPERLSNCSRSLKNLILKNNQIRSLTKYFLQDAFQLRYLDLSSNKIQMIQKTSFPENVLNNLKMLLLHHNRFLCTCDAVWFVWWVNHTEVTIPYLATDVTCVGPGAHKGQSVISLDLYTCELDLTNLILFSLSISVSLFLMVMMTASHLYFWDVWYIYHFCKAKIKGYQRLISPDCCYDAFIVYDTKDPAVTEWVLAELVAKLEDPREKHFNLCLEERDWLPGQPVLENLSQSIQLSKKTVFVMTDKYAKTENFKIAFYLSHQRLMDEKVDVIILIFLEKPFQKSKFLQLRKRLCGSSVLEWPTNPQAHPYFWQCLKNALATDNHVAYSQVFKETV
Procedure, shortened: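 Stable HEK293-Blue-hTLR7 cells (NF-κB/AP-1-driven SEAP reporter) were co-incubated with serially diluted compound (1% DMSO final) and R848 for 20 hrs at 37 °C. Supernatant SEAP was developed with QUANTI-Blue substrate for 2 hrs at 37 °C and absorbance read at 620–655 nm; antagonism seen as reduced reporter signal.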

SMILES | Clearance of Human microsome [1] [mL/min/kg] | pIC50 (human TLR7)
C[C@H]1CN(c2ccnc3c2cnn3C)Cc2ccc(N3CCC(N4CC[C@@H](N)[C@H](O)C4)CC3)cc21 [Example 29, trans-4-amino-1-[1-[(4R)-4-methyl-2-(1-methylpyrazolo[3,4-b]pyridin-4-yl)-3,4-dihydro-1H-isoquinolin-6-yl]-4-piperidyl]piperidin-3-ol] | 9.7 | 8.05
CO[C@@H]1CN(c2cc3c(cn2)CN(c2cc(C)nc4c2cnn4C)C[C@@H]3C)C[C@H]1N [Example 78, (3R,4R)-4-methoxy-1-[(5R)-7-(1,6-dimethylpyrazolo[3,4-b]pyridin-4-yl)-5-methyl-6,8-dihydro-5H-2,7-naphthyridin-3-yl]pyrrolidin-3-amine] | 6.9 | 7.35
Cn1ncc2c(N3CCc4cc(N5CCNCC5)ccc4C3)ccnc21 [Example 3, 2-(1-methylpyrazolo[3,4-b]pyridin-4-yl)-6-piperazin-1-yl-3,4-dihydro-1H-isoquinoline] | 9.5 | 7.72
C[C@H]1CN(c2ccnc3c2cnn3C)Cc2ccc(N3C[C@@H](N)[C@H](O)C3)cc21 [Example 46, trans-4-amino-1-[(4R)-4-methyl-2-(1-methylpyrazolo[3,4-b]pyridin-4-yl)-3,4-dihydro-1H-isoquinolin-6-yl]pyrrolidin-3-ol] | 6.2 | 8.00
C[C@H]1CN(c2ccnc3c2cnn3C)Cc2ccc(N3CCN(C(=O)C4CCNCC4)CC3)cc21 [Example 7, 4-piperidyl-[4-[(4R)-4-methyl-2-(1-methylpyrazolo[3,4-b]pyridin-4-yl)-3,4-dihydro-1H-isoquinolin-6-yl]piperazin-1-yl]methanone] | 10.3 | 7.74

Continued by rising pIC50 (human TLR7), values first:

Clearance of Human microsome [1] [mL/min/kg] | pIC50 (human TLR7) | SMILES
7.7 | 8.05 | C[C@H]1CN(c2ccnc3c2cnn3C)Cc2ccc(N3CCN[C@H](CO)C3)cc21 [Example 51, [(2S)-4-[(4R)-4-methyl-2-(1-methylpyrazolo[3,4-b]pyridin-4-yl)-3,4-dihydro-1H-isoquinolin-6-yl]piperazin-2-yl]methanol]
6.2 | 8.05 | C[C@H]1CN(c2ccnc3c2cnn3C)Cc2ccc(N3CC4(CCNC4)CC3=O)cc21 (stereo partly drawn) [Example 52, 2-[(4R)-4-methyl-2-(1-methylpyrazolo[3,4-b]pyridin-4-yl)-3,4-dihydro-1H-isoquinolin-6-yl]-2,7-diazaspiro[4.4]nonan-3-one]
9.0 | 8.10 | Cc1cc(N2Cc3ccc(N4CCNCC4)cc3[C@@H](C)C2)c2cnn(C)c2n1 [Example 2, (4R)-2-(1,6-dimethylpyrazolo[3,4-b]pyridin-4-yl)-4-methyl-6-piperazin-1-yl-3,4-dihydro-1H-isoquinoline]
6.2 | 8.15 | C[C@H]1CN(c2ccnc3c2cnn3C)Cc2ccc(N3CCC(O)(CN(C)C)CC3)cc21 [Example 13, 4-[(dimethylamino)methyl]-1-[(4R)-4-methyl-2-(1-methylpyrazolo[3,4-b]pyridin-4-yl)-3,4-dihydro-1H-isoquinolin-6-yl]piperidin-4-ol]
7.0 | 8.22 | C[C@H]1CN(c2ccnc3c2cnn3C)Cc2ccc(N3CCN(C(=O)C4CCCN4)CC3)cc21 (stereo partly drawn) [Example 8, pyrrolidin-2-yl-[4-[(4R)-4-methyl-2-(1-methylpyrazolo[3,4-b]pyridin-4-yl)-3,4-dihydro-1H-isoquinolin-6-yl]piperazin-1-yl]methanone]
6.2 | 8.52 | C[C@H]1CN(c2ccnc3c2cnn3C)Cc2ccc(N3CCN(CCN(C)C)CC3)cc21 [Example 38, N,N-dimethyl-2-[4-[(4R)-4-methyl-2-(1-methylpyrazolo[3,4-b]pyridin-4-yl)-3,4-dihydro-1H-isoquinolin-6-yl]piperazin-1-yl]ethanamine]
